Test results: patent US20250064062A1, “METHOD FOR INCREASING THE EFFICACY OF A HERBICIDE” (BASF SE, priority 2021, published 2025)

Tests used:
Assay type in all cases: in vivo
Conditions in all cases: Dicamba 560 g ae/ha alone; Induce 0.25% v/v
AMATA, ABUTH, CHEAL = assay: Greenhouse trial: dicamba with copolymer CP1, mean over the three weed species
[1] = tested on: waterhemp (Amaranthus tuberculatus, AMATA); assay: Greenhouse trial: dicamba (Engenia) with copolymer CP1, postemergence weed control
[2] = tested on: velvetleaf (Abutilon theophrasti, ABUTH); assay: as above
[3] = tested on: common lambsquarters (Chenopodium album; OCHEAL); assay: as above

Compound: COc1c(Cl)ccc(Cl)c1C(=O)O [Dicamba, dicamba]
- % Control (21 Days after Treatment) Mean (AMATA, ABUTH, CHEAL): 74%
- % Control (21 Days after Treatment) AMATA [1]: 83%
- % Control (21 Days after Treatment) ABUTH [2]: 53%
- % Control (21 Days after Treatment) CHEAL [3]: 86%
